Experiments:
[1] = pH stability study of DOXO-EMCH in DI Water or pH 4.0 buffer (RP-HPLC); assay type: physicochemical; details: for DOXO-EMCH / Doxorubicin / pH: room temperature
Method: To analyze DOXO-EMCH's behavior in solution, a reversed-phase (RP) HPLC method for quantitation of DOXO-EMCH and various impurities and degradation products was utilized. Samples (1.0 μL injection volume) were assayed on an HPLC system fitted with a Phenomenex Gemini C18 column 100×2.0 mm, 3 μm at a flow rate of 0.3 mL/min. The mobile phase used was an acetate/acetonitrile gradient. The degradation product EMCH could not be detected using the above HPLC method, and was therefore determined using a liquid chromatography-mass spectrometry (LC-MS) method.
Studies were performed to examine the effects of pH on DOXO-EMCH stability. In these studies, a criterion of less than 3% doxorubicin over 3-5 hours was set as the goal for stability of DOXO-EMCH. Overall, studies were designed to measure the degradation of DOXO-EMCH at room temperature into doxorubicin and EMCH. Doxorubicin was measured as a percentage of the starting DOXO-EMCH material. Due to solubility issues, the buffer controlled pH portion of the study could not be completed at pH 5.0, 5.5, 6.0 and 7.0. The results below are for DOXO-EMCH dissolved in DI Water at low (2.0 mg/mL) and high (20.0 mg/mL) concentration, and DOXO-EMCH dissolved in pH 4.0 phosphate citrate buffer at low concentration. In summary, none of the conditions met the goal of less than 3% doxorubicin HCl over a 3-5 hour period. […] The DOXO-EMCH dissolved in pH 4.0 phosphate citrate buffer was very unstable, likely as a result of the breakdown of the molecule at pH values below ˜4.5 (Table 6).

[2] = tested on: mice; details: acute and repeat-dose; cited from earlier work
[3] = tested on: rats; details: acute and repeat-dose; cited from earlier work
[4] = tested on: dogs; details: acute and repeat-dose; cited from earlier work
[5] = ~2.0 mg/mL in DI Water, no pH adjustment, 0 hr
[6] = ~2.0 mg/mL in DI Water, no pH adjustment, 2 hr
[7] = ~2.0 mg/mL in DI Water, no pH adjustment, 4 hr
[8] = ~2.0 mg/mL in DI Water, no pH adjustment, 6 hr
[9] = ~2.0 mg/mL in pH 4.0 phosphate citrate buffer, 0 hr
[10] = ~2.0 mg/mL in pH 4.0 phosphate citrate buffer, 2 hr
[11] = ~2.0 mg/mL in pH 4.0 phosphate citrate buffer, 4 hr
[12] = ~20.0 mg/mL in DI Water, no pH adjustment, 0 hr
[13] = ~20.0 mg/mL in DI Water, no pH adjustment, 2 hr
[14] = ~20.0 mg/mL in DI Water, no pH adjustment, 4 hr
[15] = ~20.0 mg/mL in DI Water, no pH adjustment, 6 hr

COc1cccc2c1C(=O)c1c(O)c3c(c(O)c1C2=O)C[C@@](O)(/C(CO)=N/NC(=O)CCCCCN1C(=O)C=CC1=O)C[C@@H]3O[C@H]1C[C@H](N)[C@H](O)[C@H](C)O1.Cl [DOXO-EMCH]
stability ([1]; dissolved in pH 4.0 phosphate citrate buffer): very unstable | DOXO-EMCH [1, 5]: 95.8 wt % | Doxorubicin [1, 5]: 0.6 wt % | pH [1, 5]: 6.0 | DOXO-EMCH [1, 6]: 82.8 wt % | Doxorubicin [1, 6]: 3.7 wt % | pH [1, 6]: 5.4 | DOXO-EMCH [1, 7]: 76.7 wt % | Doxorubicin [1, 7]: 8.9 wt % | pH [1, 7]: 5.1 | DOXO-EMCH [1, 8]: 68.6 wt % | Doxorubicin [1, 8]: 14.3 wt % | pH [1, 8]: 5.0 | DOXO-EMCH [1, 9]: 65.1 wt % | Doxorubicin [1, 9]: 23.5 wt % | pH [1, 9]: 4.0 | DOXO-EMCH [1, 10]: 7.3 wt % | Doxorubicin [1, 10]: 66.1 wt % | pH [1, 10]: 4.0 | DOXO-EMCH [1, 11]: 2.9 wt % | Doxorubicin [1, 11]: 68.8 wt % | pH [1, 11]: 4.0 | DOXO-EMCH [1, 12]: 86.0 wt % | Doxorubicin [1, 12]: 7.8 wt % | pH [1, 12]: 4.8 | DOXO-EMCH [1, 13]: 74.9 wt % | Doxorubicin [1, 13]: 15.6 wt % | pH [1, 13]: 4.6 | DOXO-EMCH [1, 14]: 56.7 wt % | Doxorubicin [1, 14]: 24.8 wt % | pH [1, 14]: 4.5 | DOXO-EMCH [1, 15]: 45.2 wt % | Doxorubicin [1, 15]: 32.2 wt % | pH [1, 15]: 4.6 | tolerance compared to doxorubicin [2]: significantly higher tolerance | tolerance compared to doxorubicin [3]: significantly higher tolerance | tolerance compared to doxorubicin [4]: significantly higher tolerance

From patent US10328093B2, “Anthracycline formulations” (CYTRX CORPORATION, priority 2012, dated 2019)
